“And” between values parts separate entries of the source, which are not always exact repeats. Equal entries are not always repeated. Where two headings read alike, the source gives them in different places. Square brackets hold non-standard residues; d marks the D form. Primed or numbered codes have the meaning given here. Ends that are not written are not given here. Peptide text beside a SMILES is read from it. * marks the point of attachment. (18F)FB = 4-[18F]fluorobenzoyl, radiolabelled form of FB, O=C(c1ccc([18F])cc1)*; PEG12 = NCCOCCOCCOCCOCCOCCOCCOCCOCCOCCOCCOCCOCCC(=O)O; Benzoyl(4-F) = O=C(c1ccc(F)cc1)*; PEG28′ = not defined here
Experiments:
[1] = molecular target: T1, integrin αvβ6 (Homo sapiens, UniProt P06756+P18564); test: Competitive binding ELISA, purified integrin αvβ6; conditions: for selectivity ratio for integrin αvβ6 compared to αvβ5: from ELISA IC50 values
T1 construct: purchased R&D Systems
Protocol: (§1) Competitive binding ELISAs were performed to evaluate the binding affinity of each peptide relative to each integrin’s biotinylated natural ligand (transforming growth factor beta 1 latency-associated peptide or TGFβ1-LAP (G&P Biosciences, Santa Clara, CA, USA) for integrins αvβ6 and αvβ8, fibronectin (Thermo Fisher, Waltham, MA, USA) for integrin αvβ1, and vitronectin (Thermo Fisher) for integrins αvβ3 and αvβ5), as previously described. In brief, anti-αv antibody (P2W7, 5 μg/mL, Abcam) was plated (50 μL/well) at 37 °C for 1 h, washed with PBS (3×), and blocked overnight with blocking buffer (300 μL/well, 5% bovine serum albumin (BSA), 1% Tween 20, in PBS), followed by washing with PBS (3×). […] The plate was incubated at 37 °C for 1 h, then washed with wash buffer (3×). A 1:1000 dilution of ExtrAvidin Horseradish Peroxidase (HRP) was added to each well (50 μL/well), incubated at 37 °C for 1 h, and then washed with wash buffer (3×). The ExtrAvidin HRP was detected with 3,3′,5,5′-tetramethylbenzidine (50 μL/well, Promega, Madison, WI, USA) for 10–15 min at room temperature. The reaction was stopped by adding 1N H2SO4 (50 μL/well) and the absorbance was measured in a Multiscan Ascent plate reader (Thermo Fisher) at 450 nm. Half-maximal inhibitory concentration (IC50) of peptides was determined fitting to sigmoidal dose-response model in GraphPad Prism 5.0 (San Diego, CA, USA).

[2] = tested on: DX3puroβ6 (αvβ6+) cells; test: 18F-radiolabeled peptide cell binding assay, αvβ6+ cells; format: cell-based; conditions: 60 min incubation at 37 °C, n = 3
Protocol: (§2) Cell binding assay was performed as previously described. […] The ^18F-radiolabeled peptide was prepared in a stock solution of 148 kBq in 1 mL PBS (pH 7.2). Aliquots of each ^18F-radiolabeled peptide (50 μL, 7.4 kBq per sample) were added to each cell sample and incubated at 37 °C for 1 h with frequent suspension. After incubation, each sample was centrifuged and the supernatant was collected. The cell pellet was washed with 500 μL PBS, centrifuged, and the supernatant was combined with the previously collected supernatant samples. The cell pellet was resuspended in 600 μL PBS and transferred to gamma counter tubes. All pellet and supernatant samples were measured in a Wizard 1470 gamma counter (Perkin Elmer, Waltham, MA, USA). Cell binding percentage for each cell line was calculated as the radioactivity associated, with pellet divided by the total radioactivity associated with both the pellet and supernatant.

[3] = Serum stability assay in mouse serum; format: in vitro ADME; conditions: 37 °C, radio-RP-HPLC
Protocol: Peptide stability was evaluated in mouse serum as previously described. In brief, formulated ^18F-radiolabeled peptide (~3.7 MBq in PBS) was incubated with mouse serum (500 μL, Sigma Aldrich, St. Louis, MO) at 37 °C for 1 h.

[4] = molecular target: T2, integrin αvβ8 (Homo sapiens, UniProt P06756+P26012); test: Competitive binding ELISA, purified integrin αvβ8; conditions: competitive ELISA vs biotinylated TGFβ1-LAP, n = 3
T2 construct: purchased R&D Systems
Protocol: as §1

[5] = molecular target: T3, integrin αvβ3 (Homo sapiens, UniProt P05106+P06756); test: Competitive binding ELISA, purified integrin αvβ3; conditions: competitive ELISA vs biotinylated vitronectin, n = 3
T3 construct: purchased R&D Systems
Protocol: as §1

[6] = molecular target: T4, integrin αvβ1 (Homo sapiens, UniProt P05556+P06756); test: Competitive binding ELISA, purified integrin αvβ1; conditions: competitive ELISA vs biotinylated fibronectin, n = 3
T4 construct: purchased R&D Systems
Protocol: as §1

[7] = tested on: DX3puro (αvβ6−) cells; test: 18F-radiolabeled peptide cell binding assay, αvβ6− cells; format: cell-based; conditions: 60 min incubation at 37 °C, n = 3
Protocol: as §2

[8] = competitive ELISA vs biotinylated TGFβ1-LAP, n = 3, read-out: IC50 (μM) αvβ6

Row | Compound | IC50 [1, 8] [µM] | % binding to DX3puroβ6 (αvβ6+) cells [2] | % Intact (1 h) [3] | % binding to DX3puro (αvβ6−) cells [7] | also measured
1 | CC(C)C[C@H](NC(=O)[C@H](Cc1ccc(O)cc1)NC(=O)[C@@H](NC(=O)[C@H](CC(C)C)NC(=O)[C@H](CC(=O)O)NC(=O)CNC(=O)[C@@H](NC(=O)c1ccc(F)cc1)C(C)C)[C@@H](C)O)C(=O)N[C@@H](CCCCN)C(=O)N[C@@H](CCCCN)C(N)=O [1a] ({Benzoyl(4-F)}-VGDLTYLKK-NH2) | 0.81 ± 0.09 |  |  |  | 
2 | CC(=O)N[C@H](C(=O)NCC(=O)N[C@@H](CC(=O)O)C(=O)N[C@@H](CC(C)C)C(=O)N[C@H](C(=O)N[C@@H](Cc1ccc(O)cc1)C(=O)N[C@@H](CC(C)C)C(=O)N[C@@H](CCCCN)C(=O)N[C@@H](CCCCNC(=O)c1ccc(F)cc1)C(N)=O)[C@@H](C)O)C(C)C [1b] | > 100 |  |  |  | 
3 | CN[C@H](C(=O)NCC(=O)N[C@@H](CC(=O)O)C(=O)N[C@@H](CC(C)C)C(=O)N[C@H](C(=O)N[C@@H](Cc1ccc(O)cc1)C(=O)N[C@@H](CC(C)C)C(=O)N[C@@H](CCCCN)C(=O)N[C@@H](CCCCNC(=O)c1ccc(F)cc1)C(N)=O)[C@@H](C)O)C(C)C [1c] | > 5 |  |  |  | 
4 | CC(C)C[C@H](NC(=O)[C@H](Cc1ccc(O)cc1)NC(=O)[C@@H](NC(=O)[C@H](CC(C)C)NC(=O)[C@H](CC(=O)O)NC(=O)CNC(=O)[C@@H](NC(=O)CCOCCOCCOCCOCCOCCOCCOCCOCCOCCOCCOCCOCCN)C(C)C)[C@@H](C)O)C(=O)N[C@@H](CCCCN)C(=O)N[C@@H](CCCCNC(=O)c1ccc(F)cc1)C(N)=O [1d] (H-[PEG12]VGDLTYLKK(Benzoyl(4-F))-NH2; N-terminus assumed) | > 100 |  |  |  | 
5 | CC(C)C[C@H](NC(=O)[C@H](Cc1ccc(O)cc1)NC(=O)[C@@H](NC(=O)[C@H](CC(C)C)NC(=O)[C@H](CC(=O)O)NC(=O)CNC(=O)[C@@H](NC(=O)c1ccc(F)cc1)C(C)C)[C@@H](C)O)C(=O)N[C@@H](CCCCN)C(=O)N[C@@H](CCCCNC(=O)c1ccc(F)cc1)C(N)=O [1e] | 0.84 ± 0.36 |  |  |  | 
6 | CC(C)C[C@H](NC(=O)[C@H](Cc1ccc(O)cc1)NC(=O)[C@@H](NC(=O)[C@H](CC(C)C)NC(=O)[C@H](CC(=O)O)NC(=O)CNC(=O)[C@@H](N)C(C)C)[C@@H](C)O)C(=O)N[C@@H](CCCCN)C(=O)N[C@@H](CCCCNC(=O)c1ccc(F)cc1)C(=O)NCCOCCOCCOCCOCCOCCOCCOCCOCCOCCOCCOCCOCCOCCOCCOCCOCCOCCOCCOCCOCCOCCOCCOCCOCCOCCOCCOCCOCCC(N)=O [1f] | 3.7 ± 1 | < 2% | > 95% |  | 
7 | CC(=O)N[C@H](C(=O)NCC(=O)N[C@@H](CC(=O)O)C(=O)N[C@@H](CC(C)C)C(=O)N[C@H](C(=O)N[C@@H](Cc1ccc(O)cc1)C(=O)N[C@@H](CC(C)C)C(=O)N[C@@H](CCCCN)C(=O)N[C@@H](CCCCNC(=O)c1ccc(F)cc1)C(=O)NCCOCCOCCOCCOCCOCCOCCOCCOCCOCCOCCOCCOCCOCCOCCOCCOCCOCCOCCOCCOCCOCCOCCOCCOCCOCCOCCOCCOCCC(N)=O)[C@@H](C)O)C(C)C [1g] | > 100 |  |  |  | 
8 | CC(C)C[C@H](NC(=O)[C@H](Cc1ccc(O)cc1)NC(=O)[C@@H](NC(=O)[C@H](CC(C)C)NC(=O)[C@H](CC(=O)O)NC(=O)CNC(=O)[C@@H](NC(=O)c1ccc(F)cc1)C(C)C)[C@@H](C)O)C(=O)N[C@@H](CCCCN)C(=O)N[C@@H](CCCCNC(=O)c1ccc(F)cc1)C(=O)NCCOCCOCCOCCOCCOCCOCCOCCOCCOCCOCCOCCOCCOCCOCCOCCOCCOCCOCCOCCOCCOCCOCCOCCOCCOCCOCCOCCOCCC(N)=O [1h] | 1.47 ± 0.23 | < 2% | > 95% |  | 
9 | CC(C)C[C@H](NC(=O)[C@H](Cc1ccc(O)cc1)NC(=O)[C@@H](NC(=O)[C@H](CC(C)C)NC(=O)[C@H](CC(=O)O)NC(=O)CNC(=O)[C@@H](N)C(C)C)[C@@H](C)O)C(=O)N[C@@H](CCCCN)C(=O)N[C@@H](CCCCNC(=O)c1ccc(F)cc1)C(N)=O [compound 1] (H-VGDLTYLKK(Benzoyl(4-F))-NH2; N-terminus assumed) |  |  |  |  | selectivity ratio for integrin αvβ6 compared to the other integrins (αvβ1, αvβ3, and αvβ5) [1]: > 200 :1; IC50 ([1]; read-out: IC50 (μM) αvβ6): 0.45 ± 0.06 µM; IC50 [4]: 5.3 ± 0.14 µM
10 | CSCC[C@H](NC(=O)[C@H](CC(C)C)NC(=O)[C@H](CC(=O)O)NC(=O)CNC(=O)[C@@H](N)CCCNC(=N)N)C(=O)N[C@@H](CCCCN)C(=O)N[C@@H](CC(C)C)C(=O)N[C@@H](C)C(=O)N[C@@H](CCCCNC(=O)c1ccc(F)cc1)C(N)=O [compound 2] (H-RGDLMKLAK(Benzoyl(4-F))-NH2; N-terminus assumed) |  |  |  |  | IC50 [1]: 0.95 ± 0.17 µM; selectivity ratio for integrin αvβ6 compared to αvβ5 [1]: > 100 :1; IC50 [4]: 2.6 ± 0.35 µM
11 | CC(C)C[C@H](NC(=O)[C@H](CC(=O)O)NC(=O)CNC(=O)[C@@H](N)CCCNC(=N)N)C(=O)N[C@@H](C)C(=O)N[C@@H](CC(=O)O)C(=O)N[C@@H](CC(C)C)C(=O)N[C@@H](CCCNC(=N)N)C(=O)N[C@@H](CCCCNC(=O)c1ccc(F)cc1)C(N)=O [compound 3] (H-RGDLADLRK(Benzoyl(4-F))-NH2; N-terminus assumed) |  |  |  |  | selectivity ratio for integrin αvβ6 compared to αvβ5 [1]: > 100 :1
12 | CC[C@H](C)[C@H](NC(=O)CN)C(=O)N[C@@H](CC(=O)O)C(=O)N[C@@H](CC(C)C)C(=O)N[C@H](C(=O)N[C@@H](CO)C(=O)N[C@@H](CC(C)C)C(=O)N[C@H](C(=O)N[C@@H](CCCCNC(=O)c1ccc(F)cc1)C(N)=O)[C@@H](C)O)[C@@H](C)O [compound 4] (H-GIDLTSLTK(Benzoyl(4-F))-NH2; N-terminus assumed) | > 100 |  |  |  | IC50 [5]: > 100 µM
13 | CC(C)C[C@H](NC(=O)[C@H](CCC(=O)O)NC(=O)[C@H](CCCNC(=N)N)NC(=O)[C@H](CC(C)C)NC(=O)[C@H](CC(=O)O)NC(=O)CNC(=O)[C@@H](N)CCCNC(=N)N)C(=O)N[C@@H](C)C(=O)N[C@@H](CCCCNC(=O)c1ccc(F)cc1)C(N)=O [compound 5] (H-RGDLRELAK(Benzoyl(4-F))-NH2; N-terminus assumed) |  |  |  |  | IC50 [6]: 1.9 ± 0.3 µM; selectivity ratio for integrin αvβ6 compared to αvβ5 [1]: > 100 :1; IC50 ([1]; read-out: IC50 (μM) αvβ6, competitive ELISA vs biotinylated TGFβ1-LAP, n = 3): 0.89 ± 0.14 µM
14 | FB-VGDLTYLKK([^18F]FB)-PEG28 ({Benzoyl(4-F)}-VGDLTYLKK((18F)FB)[PEG28′]) [[^18F]1h] |  | less than 2% | > 95% and 95% | less than 2% | 
15 | RGDLADLRK([^18F]FB) (RGDLADLRK((18F)FB)) [[^18F]3] |  | 7.7 ± 3.8% | 0% | 5.3 ± 2.8% | 
16 | RGDLRELAK([^18F]FB) (RGDLRELAK((18F)FB)) [[^18F]5] |  | 6.4 ± 0.1% | 0% | 5.9 ± 0.8% | 
17 | VGDLTYLKK([^18F]FB) (VGDLTYLKK((18F)FB)-NH2) [[^18F]1] |  | 12.8 ± 1.9% | 25% | 11.7 ± 2.2% | 
18 | VGDLTYLKK([^18F]FB)-PEG28 (VGDLTYLKK((18F)FB)[PEG28′]) [[^18F]1f] |  | less than 2% | > 95% and 95% | less than 2% | 
19 | VGDLTYLKK([^18F]FB)KVART [[^18F]1i] |  | 5.0 ± 0.5% | > 99% and 99% |  | 
20 | [^18F]FB-PEG28-A20FMDV2-K16R-PEG28 [reference compound] |  | 77.1 ± 0.1% |  | 1.5 ± 0.1% | 
21 | [^18F]FB-VGDLTYLKK ({(18F)FB}-VGDLTYLKK-NH2) [[^18F]1a] |  | less than 2% |  | less than 2% | 

Reference: article PMC6359284, “Identification, Characterization, and Optimization of Integrin αvβ6-Targeting Peptides from a One-Bead One-Compound (OBOC) Library: Towards the Development of Positron Emission Tomography (PET) Imaging Agents” (Molecules, 2019)
